Assay results from paper PMC4220016, “The binding characteristics and orientation of a novel radioligand with distinct properties at 5-HT3A and 5-HT3AB receptors” (Neuropharmacology, 2014).
Where “and” joins values, the source holds several entries; their conditions need not be identical. Equal entries are not always repeated. Where two headings read alike, the source gives them in different places.

How the values were obtained:
[1] = biological target: T1, 5-HT3A receptors (Homo sapiens, UniProt P46098); experiment: Kinetic measurements (association, dissociation) at 5-HT3A receptors; type: binding; parameters: expressed in transfected cells; host or cells: HEK 293; conditions: calculated from kinetic rates, Equ (4), read-out: Kd(nM) (kon/koff)
T1 sequence (P46098 24-478): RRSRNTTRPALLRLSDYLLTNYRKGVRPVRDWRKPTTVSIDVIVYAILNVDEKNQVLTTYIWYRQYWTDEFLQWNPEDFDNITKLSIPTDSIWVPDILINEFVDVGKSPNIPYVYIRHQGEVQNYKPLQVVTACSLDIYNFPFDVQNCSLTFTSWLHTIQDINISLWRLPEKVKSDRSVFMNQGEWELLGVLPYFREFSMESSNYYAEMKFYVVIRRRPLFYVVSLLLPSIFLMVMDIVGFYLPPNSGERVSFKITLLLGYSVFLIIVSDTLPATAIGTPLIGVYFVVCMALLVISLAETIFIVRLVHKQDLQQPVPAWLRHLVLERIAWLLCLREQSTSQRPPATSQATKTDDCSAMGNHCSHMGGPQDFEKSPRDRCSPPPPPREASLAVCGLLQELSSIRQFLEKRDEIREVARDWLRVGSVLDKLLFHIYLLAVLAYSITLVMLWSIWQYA

[2] = biological target: T2, 5-HT3A receptor Y141C (Homo sapiens, UniProt P46098, Y136C); experiment: Saturation binding of [^3H]VUF10166 at 5-HT3A receptor mutant; conditions: Loop E, read-out: Kd (nM) Mean ± SEM
T2 construct: expressed in transfected cells; host or cells: HEK 293
T2 sequence (P46098 24-478 Y136C): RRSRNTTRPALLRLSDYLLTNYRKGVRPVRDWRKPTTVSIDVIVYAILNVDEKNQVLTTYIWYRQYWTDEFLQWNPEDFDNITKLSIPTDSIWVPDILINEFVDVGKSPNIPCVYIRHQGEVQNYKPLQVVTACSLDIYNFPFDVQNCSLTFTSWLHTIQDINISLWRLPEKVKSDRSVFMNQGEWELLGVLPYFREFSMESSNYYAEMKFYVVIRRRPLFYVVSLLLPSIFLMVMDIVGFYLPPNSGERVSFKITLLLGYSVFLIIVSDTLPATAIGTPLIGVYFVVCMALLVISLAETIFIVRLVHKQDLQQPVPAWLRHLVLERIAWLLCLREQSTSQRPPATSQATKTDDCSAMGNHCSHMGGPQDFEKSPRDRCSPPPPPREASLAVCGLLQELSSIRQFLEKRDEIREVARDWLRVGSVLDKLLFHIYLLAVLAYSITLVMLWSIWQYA
Procedure: (§1) Mutagenesis was performed using the QuikChange method (Agilent Technologies Inc., California, USA) on human 5-HT3A cDNA (accession number: P46098) cloned into pcDNA3.1 (Invitrogen, Paisley, UK). Cysteine residues were substituted for amino acids throughout each of the binding loops A–E (Fig. 1). To facilitate comparisons with previous work, we use the numbering of the equivalent residues in the mouse 5-HT3A subunit; for human numbering 5 should be subtracted from each residue number.
(§2) All data were analysed using GraphPad Prism 4.03.

[3] = biological target: T3, 5-HT3A receptor I139C (Homo sapiens, UniProt P46098, I134C); experiment: as above; conditions: I139C, Loop E; read-out: Kd (nM) Mean ± SEM
T3 construct: expressed in transfected cells; host or cells: HEK 293
T3 sequence (P46098 24-478 I134C): as the sequence (P46098 24-478 Y136C) above, with I111C, C113Y counted along it
Procedure: as §1, §2

[4] = biological target: T4, 5-HT3A receptor W183C (Homo sapiens, UniProt P46098, W178C); experiment: as above; conditions: Loop B, read-out: Kd (nM) Mean ± SEM
T4 construct: expressed in transfected cells; host or cells: HEK 293
T4 sequence (P46098 24-478 W178C): as the sequence (P46098 24-478 Y136C) above, with C113Y, W155C counted along it
Procedure: as §1, §2

[5] = biological target: T5, 5-HT3A receptor W90C (Homo sapiens, UniProt P46098, W85C); experiment: as above; conditions: Loop D, read-out: Kd (nM) Mean ± SEM
T5 construct: expressed in transfected cells; host or cells: HEK 293
T5 sequence (P46098 24-478 W85C): as the sequence (P46098 24-478 Y136C) above, with W62C, C113Y counted along it
Procedure: as §1, §2

[6] = biological target: T6, 5-HT3A receptor T179C (Homo sapiens, UniProt P46098, T174C); experiment: as above; conditions: Loop B, read-out: Kd (nM) Mean ± SEM
T6 construct: expressed in transfected cells; host or cells: HEK 293
T6 sequence (P46098 24-478 T174C): as the sequence (P46098 24-478 Y136C) above, with C113Y, T151C counted along it
Procedure: as §1, §2

[7] = biological target: T7, 5-HT3A receptor Y143C (Homo sapiens, UniProt P46098, Y138C); experiment: as above; conditions: Loop E, read-out: Kd (nM) Mean ± SEM
T7 construct: expressed in transfected cells; host or cells: HEK 293
T7 sequence (P46098 24-478 Y138C): as the sequence (P46098 24-478 Y136C) above, with C113Y, Y115C counted along it
Procedure: as §1, §2

[8] = biological target: T8, 5-HT3A receptor R58C (Homo sapiens, UniProt P46098, R53C); experiment: as above; conditions: read-out: Kd (nM) Mean ± SEM
T8 construct: expressed in transfected cells; host or cells: HEK 293
T8 sequence (P46098 24-478 R53C): as the sequence (P46098 24-478 Y136C) above, with R30C, C113Y counted along it
Procedure: as §1, §2

[9] = biological target: T9, 5-HT3A receptor T181C (Homo sapiens, UniProt P46098, T176C/T181C); experiment: as above; conditions: Loop B, read-out: Kd (nM) Mean ± SEM
T9 construct: expressed in transfected cells; host or cells: HEK 293
T9 sequence (P46098 24-478 T176C/T181C): as the sequence (P46098 24-478 Y136C) above, with C113Y, T153C, T158C counted along it
Procedure: as §1, §2

[10] = biological target: T10, 5-HT3A receptor S114C (Homo sapiens, UniProt P46098, S109C); experiment: as above; conditions: S114C; read-out: Kd (nM) Mean ± SEM
T10 construct: expressed in transfected cells; host or cells: HEK 293
T10 sequence (P46098 24-478 S109C): as the sequence (P46098 24-478 Y136C) above, with S86C, C113Y counted along it
Procedure: as §1, §2

[11] = biological target: T11, 5-HT3A receptor N232C (Homo sapiens, UniProt P46098, N227C); experiment: as above; conditions: N232C, Loop C; read-out: Kd (nM) Mean ± SEM
T11 construct: expressed in transfected cells; host or cells: HEK 293
T11 sequence (P46098 24-478 N227C): as the sequence (P46098 24-478 Y136C) above, with C113Y, N204C counted along it
Procedure: as §1, §2

[12] = biological target: T12, 5-HT3A receptor E129C (Homo sapiens, UniProt P46098, E124C); experiment: as above; conditions: Loop A, read-out: Kd (nM) Mean ± SEM
T12 construct: expressed in transfected cells; host or cells: HEK 293
T12 sequence (P46098 24-478 E124C): as the sequence (P46098 24-478 Y136C) above, with E101C, C113Y counted along it
Procedure: as §1, §2

[13] = biological target: T13, 5-HT3A receptor H185C (Homo sapiens, UniProt P46098, H180C); experiment: as above; conditions: H185C, Loop B; read-out: Kd (nM) Mean ± SEM
T13 construct: expressed in transfected cells; host or cells: HEK 293
T13 sequence (P46098 24-478 H180C): as the sequence (P46098 24-478 Y136C) above, with C113Y, H157C counted along it
Procedure: as §1, §2

[14] = biological target: T14, 5-HT3A receptor Q151C (Homo sapiens, UniProt P46098, Q146C); experiment: as above; conditions: Q151C, Loop E; read-out: Kd (nM) Mean ± SEM
T14 construct: expressed in transfected cells; host or cells: HEK 293
T14 sequence (P46098 24-478 Q146C): as the sequence (P46098 24-478 Y136C) above, with C113Y, Q123C counted along it
Procedure: as §1, §2

[15] = biological target: T15, 5-HT3A receptor L126C (Homo sapiens, UniProt P46098, L121C); experiment: as above; conditions: L126C, Loop A; read-out: Kd (nM) Mean ± SEM
T15 construct: expressed in transfected cells; host or cells: HEK 293
T15 sequence (P46098 24-478 L121C): as the sequence (P46098 24-478 Y136C) above, with L98C, C113Y counted along it
Procedure: as §1
(§3) All data were analysed using GraphPad Prism 4.03. […].

[16] = biological target: T16, 5-HT3A receptor F226C (Homo sapiens, UniProt P46098, F221C); experiment: as above; conditions: F226C, Loop C; read-out: Kd (nM) Mean ± SEM
T16 construct: expressed in transfected cells; host or cells: HEK 293
T16 sequence (P46098 24-478 F221C): as the sequence (P46098 24-478 Y136C) above, with C113Y, F198C counted along it
Procedure: as §1, §3

[17] = biological target: T17, 5-HT3A receptor Y153C (Homo sapiens, UniProt P46098, Y148C); experiment: as above; conditions: Y153C, Loop E; read-out: Kd (nM) Mean ± SEM
T17 construct: expressed in transfected cells; host or cells: HEK 293
T17 sequence (P46098 24-478 Y148C): as the sequence (P46098 24-478 Y136C) above, with C113Y, Y125C counted along it
Procedure: as §1, §3

[18] = biological target: T18, 5-HT3AB receptors (Homo sapiens, UniProt O95264+P46098); experiment: Kinetic measurements (association, dissociation) at 5-HT3AB receptors; type: binding; parameters: expressed in transfected cells; host or cells: HEK 293; conditions: from kinetic rates, Equ (4), read-out: Kd(nM) (kon/koff)
T18 sequence (P46098 24-478): T1 sequence (P46098 24-478)
T18 sequence (O95264 22-441): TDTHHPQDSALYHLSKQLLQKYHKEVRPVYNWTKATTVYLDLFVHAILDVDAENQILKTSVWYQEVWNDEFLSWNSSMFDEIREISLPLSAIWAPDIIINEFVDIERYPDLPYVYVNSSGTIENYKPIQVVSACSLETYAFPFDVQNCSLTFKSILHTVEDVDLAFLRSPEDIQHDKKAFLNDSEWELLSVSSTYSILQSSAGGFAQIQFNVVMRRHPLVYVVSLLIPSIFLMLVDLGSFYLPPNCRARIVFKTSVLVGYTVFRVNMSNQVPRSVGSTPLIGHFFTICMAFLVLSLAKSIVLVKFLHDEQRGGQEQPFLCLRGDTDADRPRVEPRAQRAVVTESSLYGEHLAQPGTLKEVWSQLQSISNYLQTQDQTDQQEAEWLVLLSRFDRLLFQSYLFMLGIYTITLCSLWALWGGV

Question: What does the source list for CN1CCN(c2nc3ccccc3nc2Cl)CC1 [[^3H]VUF10166] [2-chloro-3-(4-[^3H]methylpiperazin-1-yl)quinoxaline]?
Answer: Kd [1]: 0.16 nM; Kd [2]: > 10 nM; Kd [3]: 1.55 ± 0.15 nM; Kd [4]: > 10 nM; Kd [5]: > 10 nM; Kd [6]: > 10 nM; Kd [7]: > 10 nM; Kd [8]: > 10 nM; Kd [9]: > 10 nM; Kd [10]: 0.21 ± 0.09 nM; Kd [11]: 1.9 ± 0.36 nM; Kd [12]: > 10 nM; Kd [13]: 0.96 ± 0.39 nM; Kd [14]: 1.82 ± 0.19 nM; Kd [15]: 0.89 ± 0.19 nM; Kd [16]: 1.59 ± 0.08 nM; Kd [17]: 2.03 ± 0.33 nM; Kd ([18]; first component): 0.38 nM; Kd ([18]; second component (>3 nM)): 22 nM and 22.4 nM
